Measured values published in patent publication US20140163095A1, “USE OF ERIBULIN IN THE TREATMENT OF BREAST CANCER” (priority 2012, published 2014).

Experiments:
[1] = tested on: locally recurrent or metastatic HER2 negative breast cancer; experiment: Phase II clinical trial of eribulin mesylate as first-line treatment (Part 1); format: in vivo, human; details: for DOR (duration of response), Median months (95% CI) / TTR (time to first response), Median months (95% CI): 13 responders
Experimental: (§1) A multi-center, single-arm, phase II clinical trial of eribulin mesylate was performed to evaluate the objective response rate (ORR) (according to RECIST v1.1) to first-line treatment with single-agent eribulin mesylate in subjects with locally recurrent or metastatic HER2 negative breast cancer. Secondary objectives included the safety and tolerability of eribulin mesylate, time to first response, duration of response (DOR), and progression free survival (PFS).
Patients were excluded from the study if they had inflammatory breast cancer or had received prior chemotherapy, biologic therapy, or investigational therapy for locally recurrent or metastatic breast cancer (patients who received prior endocrine therapy were permitted).
HER2 status was determined by either fluorescence in situ hybridization (FISH) or 0 or 1+ by immunohistochemical (IHC) staining. Subjects with an HER2:FISH ratio of 1.8:2.2 were eligible, consistent with ASCO/CAP guidelines (Wolff et al., J. Clin. Oncol. 25:118-145, 2007).

[2] = tested on: subjects with locally recurrent or metastatic HER2 negative breast cancer; experiment: Phase II first-line trial, safety outcomes
Experimental: as §1

[3] = tested on: locally advanced or metastatic breast cancer; experiment: Phase III clinical trial comparing eribulin mesylate and capecitabine; details: for overall survival as compared to capecitabine: FIG. 6
Experimental: A global, randomized, open-label, two-parallel-arm, phase III clinical trial of eribulin (eribulin mesylate) and capecitabine was performed.
This study randomized 1102 patients who had up to three prior chemotherapy regimens, and no more than two prior regimens for advanced and/or metastatic disease. The prior regimens must have included an anthracycline and a taxane, either in the (neo) adjuvant setting or for locally advanced or metastatic disease. Patients must have had documented evidence of progression during or after their most recent anti-cancer therapy. […] Patients were randomized to receive either eribulin mesylate as an intravenous (IV) infusion of 1.4 mg/m^2 over 2-5 minutes on days 1 and 8 every 21 days or capecitabine as an oral administration of 2.5 g/m^2/day administered twice daily in two equal doses on days 1 to 14 every 21 days.
This study was designed to have co-primary endpoints, overall survival (OS) and progression free survival (PFS), with alpha spending 0.04 and 0.01, respectively.
Progression events (disease progression determined by Response Evaluation Criteria in Solid Tumors [RECIST, version 1.0]) were categorized as: (i) emergence of a new lesion/metastasis, defined here as a lesion identified at progression that had not been previously reported, (ii) increase in size of an existing (previously reported) lesion (target or non-target), and (iii) other PFS event, e.g., death, clinical progression, or censoring. Investigator review of disease progression was used as the primary analysis for these investigations. Where progression was determined by investigator review, no further scans were performed, leading to informative censoring of independent review data (approximately 20%). The number of new metastases observed by independent review was considered an under-estimate due to this considerable informative censoring. OS and PFS were compared between treatment arms using two-sided, stratified (geographic region and HER2 status) log-rank tests. The correlation between progression events and OS was investigated by Cox regression, incorporating the event as a time-dependent covariate. New metastasis-free survival, defined as time from randomization to death or progression due to appearance of a new metastasis (whichever occurs earlier), was also analyzed.

[4] = All Subjects, listed as eribulin
[5] = of patients with any new metastasis

C=C1C[C@@H]2CC[C@@]34C[C@H]5O[C@H]6[C@@H](O3)[C@H]3O[C@H](CC[C@@H]3O[C@H]6[C@H]5O4)CC(=O)C[C@@H]3[C@@H](OC)[C@@H](C[C@H](O)CN)O[C@H]3C[C@H]3O[C@@H](CC[C@@H]1O2)C[C@@H](C)C3=C.CS(=O)(=O)O [Eribulin, 11,15:18,21:24,28-Triepoxy-7,9-ethano-12,15-methano-9H,15H-furo[3,2-i]furo[2′,3′:5,6]pyrano[4,3-b][1,4]dioxacyclopentacosin-5(4H)-one, 2-[(2S)-3-amino-2-hydroxypropyl]hexacosahydro-3-methoxy-26-methyl-20,27-bis(methylene)-, (2R,3R,3aS,7R,8aS,9S,10aR,11S,12R,13aR,13bS,15S,18S,21S,24S,26R,28R,29aS)-methanesulfonate (salt)]
DOR (duration of response), Median months (95% CI) ([1]; All Subjects): 7.4 (3.29, NE) months | TTR (time to first response), Median months (95% CI) ([1]; All Subjects): 1.4 (1.31, 2.69) months | DOR (duration of response), Median months (95% CI) [1, 4]: 7.4 months | TTR (time to first response), Median months (95% CI) [1, 4]: 1.4 months | PFS, Median months (95% CI) ([1]; All Subjects, N 48): 5.9 (3.48, 7.39) months | PFS, Median months (95% CI) ([1]; All Subjects, N 48, listed as eribulin): 5.9 months | Clinical benefit rate (CR + PR + durable SD) ([1]; All, N = 48): 22 (45.8) n (%) | Complete response (CR) ([1]; All, N = 48): 0 n (%) | Disease control rate (CR + PR + SD) ([1]; All, N = 48): 36 (75.0) n (%) | Not evaluable/unknown (response category) ([1]; All, N = 48): 1 (2.1) n (%) | Objective response rate (ORR) ([1]; All, N = 48): 13 (27.1) n (%) | Partial response (PR) ([1]; All, N = 48): 13 (27.1) n (%) | Progressive disease (PD) ([1]; All, N = 48): 11 (22.9) n (%) | DOR, Median months (95% CI) ([1]; ER+ Subjects, N 10): 7.4 (3.29, NE) months | TTR, Median months (95% CI) ([1]; ER+ Subjects, N 10): 1.4 (1.22, 2.66) months | PFS, Median months (95% CI) ([1]; ER+ Subjects, N 35): 6.7 (4.14, 8.54) months | Clinical benefit rate (CR + PR + durable SD) ([1]; ER+, N = 35): 19 (54.3) n (%) | Complete response (CR) ([1]; ER+, N = 35): 0 n (%) | Disease control rate (CR + PR + SD) ([1]; ER+, N = 35): 29 (82.9) n (%) | Not evaluable/unknown (response category) ([1]; ER+, N = 35): 0 n (%) | Objective response rate (ORR) ([1]; ER+, N = 35): 10 (28.6) n (%) | Partial response (PR) ([1]; ER+, N = 35): 10 (28.6) n (%) | Progressive disease (PD) ([1]; ER+, N = 35): 6 (17.1) n (%) | sum of target lesion diameters from baseline to post-baseline nadir ([1]; FIG. 10, in words): majority of patients experienced a decrease | Objective response rate (ORR) ([1]; Triple Negative (ER−/PR−/HER2−), N = 10): 3 (30.0) n (%) | TTR, Median months (95% CI) ([1]; Triple Negative Subjects, N 3): 2.9 (1.15, 5.59) months | PFS, Median months (95% CI) ([1]; Triple Negative Subjects, N 10): 4.7 (1.05, NE) months | Clinical benefit rate (CR + PR + durable SD) ([1]; Triple Negative, N = 10): 3 (30.0) n (%) | Complete response (CR) ([1]; Triple Negative, N = 10): 0 n (%) | Disease control rate (CR + PR + SD) ([1]; Triple Negative, N = 10): 6 (60.0) n (%) | Not evaluable/unknown (response category) ([1]; Triple Negative, N = 10): 1 (10.0) n (%) | Partial response (PR) ([1]; Triple Negative, N = 10): 3 (30.0) n (%) | Progressive disease (PD) ([1]; Triple Negative, N = 10): 3 (30.0) n (%) | Objective response rate (ORR) ([1]; all patients (13/48)): 27.1% | incidence of markedly abnormal lab value: low platelets ([2]; 1/51): 2% | leucopenia (treatment-related SAE) ([2]; 1 patient): 1.8% | patients with an abnormal but not clinically significant finding ([2]; 3/52, throughout the study): 5.8% | Febrile neutropenia (treatment-related SAE) ([2]; 3 patients): 5.4% | Treatment-related SAEs ([2]; 5 patients): 8.9% | patients who discontinued the study due to an AE ([2]; 6 patients): 10.7% | incidence of markedly abnormal lab value: low lymphocytes ([2]; 8/44): 18.2% | incidence of markedly abnormal lab value: low hemoglobin ([2]; 8/55): 14.5% | patients with dose interrupted/delayed due to treatment-related AEs ([2]; 20 patients): 35.7% | patients with dose reduced due to treatment-related AEs ([2]; 20 patients): 35.7% | Treatment-related AEs leading to dose adjustment (interruption/delay, reduction, or discontinuation) ([2]; 30 patients): 53.6% | incidence of markedly abnormal lab value: low leukocytes ([2]; 31/54): 57.4% | patients with a treatment-related AE with CTCAE grade ¾ ([2]; 36 patients): 64.3% | incidence of markedly abnormal lab value: low neutrophils ([2]; 41/53): 77.4% | Treatment-related AE: Alopecia ([2]; All grades, N = 56): 47 (83.9) n (%) | Treatment-related AE: Anemia ([2]; All grades, N = 56): 20 (35.7) n (%) | Treatment-related AE: Constipation ([2]; All grades, N = 56): 15 (26.8) n (%) | Treatment-related AE: Diarrhea ([2]; All grades, N = 56): 14 (25.0) n (%) | Treatment-related AE: Fatigue ([2]; All grades, N = 56): 34 (60.7) n (%) | Treatment-related AE: Leukopenia ([2]; All grades, N = 56): 19 (33.9) n (%) | Treatment-related AE: Nausea ([2]; All grades, N = 56): 27 (48.2) n (%) | Treatment-related AE: Neutropenia ([2]; All grades, N = 56): 40 (71.4) n (%) | Treatment-related AE: Peripheral neuropathy ([2]; All grades, N = 56): 32 (57.1) n (%) | Treatment-related AE: Anemia ([2]; Grade 3/4, N = 56): 2 (3.6) n (%) | Treatment-related AE: Constipation ([2]; Grade 3/4, N = 56): 0 n (%) | Treatment-related AE: Diarrhea ([2]; Grade 3/4, N = 56): 0 n (%) | Treatment-related AE: Fatigue ([2]; Grade 3/4, N = 56): 1 (1.8) n (%) | Treatment-related AE: Leukopenia ([2]; Grade 3/4, N = 56): 12 (21.4) n (%) | Treatment-related AE: Nausea ([2]; Grade 3/4, N = 56): 0 n (%) | Treatment-related AE: Neutropenia ([2]; Grade 3/4, N = 56): 28 (50.0) n (%) | Treatment-related AE: Peripheral neuropathy ([2]; Grade 3/4, N = 56): 11 (19.6) n (%) | Alopecia, neutropenia, fatigue, and peripheral neuropathy (most commonly observed treatment-related AEs), each occurring in patients ([2]; human, in vivo): > 50% | duration of grade ¾ peripheral neuropathy (median) ([2]; human, in vivo): 2.3 months | median time to first occurrence of peripheral neuropathy ([2]; human, in vivo): 4 months | AE requiring drug withdrawal in the remaining discontinued patient ([2]; in words): prolonged QT interval requiring drug withdrawal | grade ¾ neutropenia, patients ([2]; most common grade ¾ AE): 50% | Febrile neutropenia (grade 3/4) ([2]; number of patients): 4 patients | discontinuations for which peripheral neuropathy was responsible ([2]; of the 6 events resulting in discontinuations): 5 | time to a new metastasis observed in the CNS, lungs, or liver ([3]; FIG. 5, in words): trend favouring eribulin over capecitabine | overall survival as compared to capecitabine ([3]; HER2 negative patients, in words): increased overall survival | median overall survival (OS) ([3]; all randomized patients): 15.9 months | median progression-free survival (PFS) ([3]; all randomized patients): 4.1 months | median survival as compared to capecitabine ([3]; breast cancers not characterized as triple negative, FIG. 7B, in words): similar | New metastasis site: Bone, patients ([3]; count): 60 | New metastasis site: Breast, patients ([3]; count): 12 | New metastasis site: CNS (brain/spine), patients ([3]; count): 13 | New metastasis site: Chest wall, patients ([3]; count): 15 | New metastasis site: Liver, patients ([3]; count): 71 | New metastasis site: Lung, patients ([3]; count): 59 | New metastasis site: Lymph nodes, patients ([3]; count): 64 | New metastasis site: Other, patients ([3]; count): 30 | New metastasis site: Skin, patients ([3]; count): 23 | Number of patients with any new metastasis observed ([3]; count, investigator review, intent-to-treat): 291 | hazard ratio, overall survival ([3]; eribulin versus capecitabine, 95% CI 0.77, 1.00): 0.88 | hazard ratio, progression-free survival ([3]; eribulin versus capecitabine, 95% CI 0.93, 1.25): 1.08 | 1-year OS relative to capecitabine ([3]; in words): statistically significant improvement | new metastasis-free survival, median difference in favour of eribulin ([3]; independent review): 0.3 months | new metastasis-free survival, median difference in favour of eribulin ([3]; investigator review): 0.6 months | patients with progression due to a new metastasis ([3]; investigator review): 48.9% | patients with progression due to increase in the size of a pre-existing lesion ([3]; investigator review): 26.5% | patients with progression due to other reasons such as death and clinical progression ([3]; investigator review): 24.5% | patients with any new metastasis observed, percentage ([3]; investigator review, intent-to-treat): (52.5) % | HR, new metastasis-free survival ([3]; investigator review, eribulin versus capecitabine): 0.90 | New metastasis site: Bone, percentage [3, 5]: (20.6) % | New metastasis site: Breast, percentage [3, 5]: (4.1) % | New metastasis site: CNS (brain/spine), percentage [3, 5]: (4.5) % | New metastasis site: Chest wall, percentage [3, 5]: (5.2) % | New metastasis site: Liver, percentage [3, 5]: (24.4) % | New metastasis site: Lung, percentage [3, 5]: (20.3) % | New metastasis site: Lymph nodes, percentage [3, 5]: (22.0) % | New metastasis site: Other, percentage [3, 5]: (10.3) % | New metastasis site: Skin, percentage [3, 5]: (7.9) % | median OS longer with eribulin compared with capecitabine ([3]; patients whose disease progressed due to a new metastasis): 2.6 months | Median OS ([3]; patients whose disease progressed due to other events): 16.7 months | Median OS ([3]; patients with progression due to new metastasis): 15.5 months | Median OS ([3]; patients with progression due to pre-existing lesion): 17.4 months | HR, overall survival ([3]; progression due to new metastasis, eribulin versus capecitabine): 0.81 | HR, overall survival ([3]; progression due to other events, eribulin versus capecitabine): 0.78 | HR, overall survival ([3]; progression due to pre-existing lesion, eribulin versus capecitabine): 1.13 | median survival as compared to capecitabine ([3]; triple negative breast cancers, FIG. 7A, in words): statistically significant increase | overall survival as compared to capecitabine ([3]; triple negative patients, in words): most significant improvement
